According to ChEMBL document CHEMBL1135996, “Synthesis and biological evaluation of novel macrocyclic ligands with pendent donor groups as potential yttrium chelators for radioimmunotherapy with improved complex formation kinetics” (J Med Chem, 2002):

Assays:
Format in all cases: ADME, organism-based
Conditions in all cases: in vivo
[1] = organism: Mus musculus; test: Percent of blood clearance in bone of mice at 0.5 h
[2] = organism: Mus musculus; test: Percent of blood clearance in bone of mice at 24 hr
[3] = organism: Mus musculus; test: Percent of radioactivity that accumulated in kidney of mice at 24 h

For “1,4,7,10tetraaza-Cyclododecane-1,4,7,10-tetracarboxylic acid with yttrium”, the ID/g [1] was 1.47%, the ID/g [2] was 0.05% and the ID/g [3] was 0.54%.
